From patent US20210393651A1, “TARGETING THE ONCOGENIC TRANSCRIPTION FACTOR STAT5 WITH MINERALOCORTICOID ANALOGUES” (DANA-FARBER CANCER INSTITUTE, INC., priority 2018, published 2021)
Blank lines part the entries; values can stand above or below the molecule they belong to.

Tests used:
STAT5 [1] = assay: Immunoblot of STAT5 phosphorylation and nuclear localization in T47D cells after prolactin; type: cell-based; details: for phosphorylation and nuclear localization of STAT5: 1 hour pre-treatment, 15 minutes after prolactin, cellular fractionation (FIG. 3B)
Protocol: (§1) FIG. 3A-FIG. 3C is a series of photographs of blots and bar charts showing that fludrocortisone inhibits STAT5 transcriptional function without affecting its phosphorylation or genome binding. FIG. 3A is a photograph of a blot wherein T47D cells were pretreated with vehicle control or fludrocortisone for 1 hour after which prolactin was added. Cells were harvested at the indicated time point and immunoblotting was performed. FIG. 3B is a photograph of a blot wherein T47D cells were pretreated with vehicle, fludrocortisone, or Jak inhibitor 1 for 1 hour after which prolactin was added. Cells were collected 15 minutes after prolactin stimulation and cellular fractionation and immunoblotting was performed. FIG. 3C is a photograph of a blot wherein T47D cells were pretreated with vehicle (DMSO) or fludrocortisone for 1 hour, then left untreated or stimulated with prolactin. 30 minutes later, cells were harvested and ChIP was performed to analyze STAT5 and pol II binding to the CISH promoter region. Error bars represent mean±SD for two independent experiments.
Nuclear and cytoplasmic fractionation was performed using the Nuclear Extract Kit (Active Motif, Carlsbad, Calif.). Immunoblots were performed using antibodies recognizing STAT5 (sc-482), MCR (sc-11412) and RNA polymerase II (pol II) (sc-9001) (all from Santa Cruz Biotechnology, Santa Cruz Calif.) and tyrosine-phosphorylated STAT5 (9131L) (from Cell Signaling Technology, Danvers, Mass.).
Next, it was considered whether fludrocortisone was inhibiting STAT5 function by blocking a key step in its activation. To address this, the effect of fludrocortisone on the kinetics of STAT5 phosphorylation following prolactin stimulation was evaluated. […] It was then evaluated whether nuclear translocation of activated STAT5 was affected by fludrocortisone treatment. T47D cells were either untreated or pretreated with fludrocortisone or JAK inhibitor 1, then left unstimulated or treated with prolactin, after which nuclear and cytoplasmic fractions were separated and analyzed for phosphorylated STAT5. […]

STAT5 [2] = assay: STAT5-dependent luciferase reporter in T47D cells (NCAM2-luc/T47D), prolactin-stimulated; type: cell-based
Protocol: (§2) FIG. 1A is a bar chart wherein reporter cell lines were treated with the indicated doses of fludrocortisone for two hours, after which cytokines were added to activate the appropriate transcription factor. Luciferase activity was quantified by luminometry six hours later. FIG. 1B is a bar chart wherein T47D cells were transfected with one of two luciferase constructs regulated by a STAT5-dependent promoter (NCAM-luc or B-luc) together with a normalizing control, and the effect of fludrocortisone on prolactin-induced gene expression was determined. Jak inhibitor 1 (JAKinhib; 1 μM) was used as a positive control. Error bars represent mean±SD for two independent experiments. FIG. 1C is a series of bar charts wherein the indicated breast cancer cell lines were pre-treated with vehicle (dimethylsulfoxide (DMSO)) or fludrocortisone (1 μM) for 1 hour, then left untreated or stimulated with prolactin (100 ng/ml) to induce STAT5 activation. RNA was harvested 1.5 hours later, and expression of the indicated STAT5 target genes was measured using quantitative reverse transcription polymerase chain reaction (RT-PCR) and normalized to the expression of 18s. Error bars represent mean±SD for triplicates.
FIG. 2A-FIG. 2E is a series of bar graphs showing that the endogenous mineralocorticoid aldosterone inhibits STAT5 transcriptional function. FIG. 2A is a bar chart wherein T47D cells were transfected with an MCR-dependent luciferase reporter and a normalizing control, and normalized luciferase activity was determined after the indicated treatment. FIG. 2B is a bar chart wherein T47D cells transfected with an MCR-dependent luciferase reporter and a normalizing control were treated with the indicated dose of aldosterone, after which luciferase activity was determined. FIG. 2C is a bar chart wherein T47D-luc cells were pre-treated with the indicated concentration of aldosterone for 1 hour, then stimulated with prolactin (100 ng/ml) for 6 hours, after which luciferase activity was determined. […] RNA was harvested 1.5 hours later, and expression of STAT5 target genes was measured using quantitative RT-PCR and normalized to the expression of 18s RNA. […] Luciferase activity was quantified by luminometry six hours following prolactin stimulation. […]
T47D, ZR75 (American Type Culture Collection, Manassas Va.), and MDA-MB-468, were maintained in DMEM containing 10% FBS. […] STAT1, STAT3, STAT5 and NF-κB-dependent luciferase activities were measured in STAT-luc/2FTGH, STAT-luc/U3A, NCAM2-luc/T47D and NF-κB-luc/293 cells, respectively (Nelson et al., 2008 Blood 112, 5095-5102). Luciferase activity was quantified using the Bright-Glo Luciferase assay system (Promega, Madison, Wis.). […]

MCR = assay: MCR-dependent luciferase reporter in T47D cells; type: cell-based; details: for activation of MCR, MCR-specific luciferase reporter: T47D cells (FIG. 2A)
Protocol: FIG. 2A-FIG. 2E is a series of bar graphs showing that the endogenous mineralocorticoid aldosterone inhibits STAT5 transcriptional function. FIG. 2A is a bar chart wherein T47D cells were transfected with an MCR-dependent luciferase reporter and a normalizing control, and normalized luciferase activity was determined after the indicated treatment. FIG. 2B is a bar chart wherein T47D cells transfected with an MCR-dependent luciferase reporter and a normalizing control were treated with the indicated dose of aldosterone, after which luciferase activity was determined. FIG. 2C is a bar chart wherein T47D-luc cells were pre-treated with the indicated concentration of aldosterone for 1 hour, then stimulated with prolactin (100 ng/ml) for 6 hours, after which luciferase activity was determined. FIG. 2D is a bar chart wherein T47D cells were pre-treated with vehicle control or aldosterone (0.01 μM) for 1 hour, after which prolactin (100 ng/ml) was added to induce STAT5 activation. RNA was harvested 1.5 hours later, and expression of STAT5 target genes was measured using quantitative RT-PCR and normalized to the expression of 18s RNA. FIG. 2E is a bar chart wherein T47D cells stably expressing a STAT5-dependent luciferase reporter gene were treated with 1 μM fludrocortisone at the indicated time points relative to prolactin stimulation. Luciferase activity was quantified by luminometry six hours following prolactin stimulation. Error bars represent mean±SD for triplicates.

[3] = test system: STAT5 target genes AREG and CISH; assay: Expression of endogenous STAT5 target genes in breast cancer cell lines by quantitative RT-PCR; type: cell-based; details: 1 hour pre-treatment; for expression of endogenous STAT5 target genes AREG and CISH: 1 μM, prolactin 100 ng/ml
Protocol: as §2
FIG. 2A-FIG. 2E is a series of bar graphs showing that the endogenous mineralocorticoid aldosterone inhibits STAT5 transcriptional function. FIG. 2A is a bar chart wherein T47D cells were transfected with an MCR-dependent luciferase reporter and a normalizing control, and normalized luciferase activity was determined after the indicated treatment. FIG. 2B is a bar chart wherein T47D cells transfected with an MCR-dependent luciferase reporter and a normalizing control were treated with the indicated dose of aldosterone, after which luciferase activity was determined. FIG. 2C is a bar chart wherein T47D-luc cells were pre-treated with the indicated concentration of aldosterone for 1 hour, then stimulated with prolactin (100 ng/ml) for 6 hours, after which luciferase activity was determined. […] Luciferase activity was quantified by luminometry six hours following prolactin stimulation. […]

STAT1 = assay: STAT1-dependent luciferase reporter (STAT-luc/2FTGH cells); type: cell-based; details: concentrations up to 33 μM
Protocol: as §2, with “FIG. 1C is a series of bar charts wherein the indicated breast cancer cell lines were pre-treated with vehicle (dimethylsulfoxide (DMSO)) or fludrocortisone (1 μM) for 1 hour, then left untreated or stimulated with prolactin (100 ng/ml) to induce STAT5 activation.” left out, “Error bars represent mean±SD for triplicates.” left out
(§3) T47D, ZR75 (American Type Culture Collection, Manassas Va.), and MDA-MB-468, were maintained in DMEM containing 10% FBS. […] STAT1, STAT3, STAT5 and NF-κB-dependent luciferase activities were measured in STAT-luc/2FTGH, STAT-luc/U3A, NCAM2-luc/T47D and NF-κB-luc/293 cells, respectively (Nelson et al., 2008 Blood 112, 5095-5102). Luciferase activity was quantified using the Bright-Glo Luciferase assay system (Promega, Madison, Wis.).

NF-κB = assay: NF-κB-dependent luciferase reporter (NF-κB-luc/293 cells); type: cell-based; details: concentrations up to 33 μM
Protocol: as §2, with “FIG. 1C is a series of bar charts wherein the indicated breast cancer cell lines were pre-treated with vehicle (dimethylsulfoxide (DMSO)) or fludrocortisone (1 μM) for 1 hour, then left untreated or stimulated with prolactin (100 ng/ml) to induce STAT5 activation.” left out, “Error bars represent mean±SD for triplicates.” left out
as §3

STAT5 [4] = assay: Dual luciferase assay, parental T47D cells transfected with NCAM-luc or B-luc; type: cell-based; details: prolactin-induced
Protocol: as §2, with “triplicates. […]” for “triplicates.”

STAT3 = assay: STAT3-dependent luciferase reporter (STAT-luc/U3A cells); type: cell-based; details: concentrations up to 33 μM
Protocol: as §2, with “FIG. 1C is a series of bar charts wherein the indicated breast cancer cell lines were pre-treated with vehicle (dimethylsulfoxide (DMSO)) or fludrocortisone (1 μM) for 1 hour, then left untreated or stimulated with prolactin (100 ng/ml) to induce STAT5 activation.” left out, “Error bars represent mean±SD for triplicates.” left out
as §3

[5] = test system: STAT5 and RNA polymerase II binding to CISH promoter; assay: ChIP of STAT5 and pol II binding to the CISH promoter region in T47D cells; type: cell-based; details: 1 hour pre-treatment, 30 minutes after prolactin (FIG. 3C)
Protocol: as §1, with “FIG. 3C is a photograph of a blot wherein T47D cells were pretreated with vehicle (DMSO) or fludrocortisone for 1 hour, then left untreated or stimulated with prolactin. 30 minutes later, cells were harvested and ChIP was performed to analyze STAT5 and pol II binding to the CISH promoter region. Error bars represent mean±SD for two independent experiments.” left out
ChIP was performed as described (Nelson et al., 2004 J Biol Chem 279, 54724-54730). […] Quantitative PCR was performed in triplicate on ChIP product or input using SYBR Green PCR Master Mix (Applied Biosystems, Foster City, Calif.) and region-specific primers as follows: CISH, forward, 5′-CCCGCGGTTCTAGGAAGAC-3′ (SEQ ID NO: 1), reverse, 5′-CGAGCTGCTGCCTAATCCT-3′ (SEQ ID NO: 2); Rhodopsin, forward, 5′-[…]-3′ (SEQ ID NO: 3), reverse, 5′-[…]-3′ (SEQ ID NO: 4). Relative binding at the CISH promoter site was normalized to input and expressed as mean fold change relative to binding at the Rhodopsin site, which is a control DNA binding site known not to bind STAT5. […]

STAT5 [6] = assay: STAT5 activity in hematopoietic cells; type: cell-based
STAT5 [7] = assay: STAT5 function (test not described)
[8] = T47D reporter cells, 1 μM (FIG. 2E)

SMILES: CC(C)(C)c1nc2c3cc[nH]c(=O)c3c3cc(F)ccc3c2[nH]1 [JAK inhibitor 1]
phosphorylation and nuclear localization of STAT5 (STAT5 [1]): complete inhibition

SMILES: C[C@]12CCC(=O)C=C1CC[C@@H]1[C@@H]2[C@@H](O)C[C@]2(C=O)[C@@H](C(=O)CO)CC[C@@H]12 [aldosterone]
inhibition of STAT5-dependent reporter gene, dose response (STAT5 [2]; T47D-luc cells, 1 hour pre-treatment, prolactin 100 ng/ml for 6 hours (FIG. 2C)): dose-dependent inhibition
activation of MCR, MCR-specific luciferase reporter (MCR): activate MCR
dose dependence of MCR activation, MCR-dependent luciferase reporter (MCR; T47D cells, indicated doses (FIG. 2B)): activates MCR in a dose-dependent manner
expression of endogenous STAT5 target genes ([3]; T47D cells, 0.01 μM, prolactin 100 ng/ml (FIG. 2D)): inhibited

IC50 (STAT5 [2]; Homo sapiens, T47D cells stably expressing STAT5-dependent luciferase reporter, prolactin 100 ng/ml, read-out: IC50, inhibition of STAT5-dependent luciferase activity): ~100 nM
SMILES: C[C@]12CCC(=O)C=C1CC[C@H]1[C@@H]3CC[C@](O)(C(=O)CO)[C@@]3(C)C[C@H](O)[C@@]12F [fludrocortisone, 9α-fluoro-11β,17α,21-trihydroxypregn-4-ene-3,20-dione]
effect on STAT1-dependent luciferase expression (STAT1): essentially no effect
prolactin-stimulated STAT5 luciferase activity, compound added after prolactin (STAT5 [2]; [8]): some inhibitory effect
prolactin-stimulated STAT5 luciferase activity, compound added simultaneously with prolactin (STAT5 [2]; [8]): still effectively inhibit
effect on NF-κB-dependent luciferase expression (NF-κB): essentially no effect
dynamics of STAT5 activation (phosphorylation kinetics) following prolactin (STAT5 [1]; 1 hour pre-treatment (FIG. 3A)): no difference
phosphorylation and nuclear localization of STAT5 (STAT5 [1]): no effect
STAT5-dependent luciferase activity, B-luc (BCL6) promoter (STAT5 [4]): reduced STAT5-dependent luciferase activity
STAT5-dependent luciferase activity, NCAM-luc promoter (STAT5 [4]): reduced STAT5-dependent luciferase activity
activation of MCR, MCR-specific luciferase reporter (MCR): activate MCR
effect on STAT3-dependent luciferase expression (STAT3): essentially no effect
STAT5 binding to CISH regulatory site (ChIP) [5]: no effect
prolactin-induced recruitment of RNA polymerase II (pol II) to CISH promoter site (ChIP) [5]: did inhibit
expression of endogenous STAT5 target genes AREG and CISH ([3]; T47D cells): effectively inhibits
expression of endogenous STAT5 target genes AREG and CISH ([3]; ZR75 cells): effectively inhibits
induced or constitutive STAT5 activity (STAT5 [6]): does not appear to inhibit

SMILES: CC(=O)S[C@@H]1CC2=CC(=O)CC[C@]2(C)[C@H]2CC[C@@]3(C)[C@@H](CC[C@@]34CCC(=O)O4)[C@H]12 [spironolactone]
STAT5 function (STAT5 [7]): inhibit STAT5 function
